This note sets out measurements from ChEMBL document CHEMBL1201862, “PubChem BioAssay data set” (2004).

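Interpolation was linear, between the two tested concentrations surrounding the appropriate level; five concentrations were tested over 48 hours in 96-well plates. GI50: concentration for 50% inhibition of growth.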 Activity calls are given as the source filed them. Cut-off read from the data, not from the text of the source: active = GI50 up to about 1.1 µM and inactive = higher.

Among the test systems are A498; A549; COLO 205; HCC 2998; HL-60; HOP-92; K562; KM12; MDA-N; OVCAR-3; OVCAR-8; PC-3; SK-MEL-28; SR; SW-620; TK-10; UACC-257; HCT-15; LOX IMVI; NCI/ADR-RES.
Holding throughout (assay): NCI tumour cell line growth inhibition, 48 h

As to `C[C@]12CC[C@H](O)CC1=CC[C@@H]1C2CC[C@]2(C)c3n[nH]nc3CC12` (stereo partly drawn), the GI50 was > 100 µM (inactive) in the assay with A498; > 100 µM (inactive) in the assay on A549; > 100 µM (inactive) with COLO 205; > 100 µM (inactive) in the assay with HCC 2998; 44.4 µM (inactive) with HL-60; > 100 µM (inactive) in the assay with HOP-92. For the same compound, the GI50 in the assay on K562 is 39.8 µM (inactive); with KM12, > 100 µM (inactive); in the assay with MDA-N, 36.3 µM (inactive); in the assay with OVCAR-3, > 100 µM (inactive); with OVCAR-8, > 100 µM (inactive); in the assay with PC-3 it was > 100 µM (inactive). In addition, the GI50 in the assay on SK-MEL-28 was > 100 µM (inactive); in the assay on SR it was 25.9 µM (inactive); with SW-620 it was > 100 µM (inactive); in the assay on TK-10 it was > 100 µM (inactive); with UACC-257, > 100 µM (inactive).
On to `CC1=C(C(=O)NNC(=O)c2ccccc2O)CC(C(=O)NNC(=O)c2ccccc2O)=C(C)N1`, for which the GI50 is 1.79 µM (inactive) with A498; 0.48 µM (active) in the assay on A549; 16.9 µM (inactive) in the assay with COLO 205; 13.7 µM (inactive) in the assay on HCC 2998; 0.649 µM in the assay with HCT-15; 0.512 µM (active) with HL-60. Moreover, the GI50 was 0.338 µM (active) with K562; 0.384 µM (active) with KM12; 2.58 µM (inactive) with LOX IMVI; 0.336 µM (active) in the assay on MDA-N; 0.448 µM (active) in the assay with NCI/ADR-RES; 1.55 µM (inactive) with OVCAR-3. Besides, the GI50 in the assay with OVCAR-8 was 0.845 µM (active); with SK-MEL-28, > 77.3 µM (inactive); in the assay on SR, 0.64 µM (active); with SW-620, 5.55 µM (inactive); with TK-10, > 47.3 µM (inactive); with UACC-257 it was 27.2 µM (inactive).
`COc1ccc2c(c1)CC[C@@H]1C2CC[C@]2(C)C(=O)N(C)C(=O)CC12` (stereo partly drawn): the GI50 is > 100 µM (inactive) in the assay with A498; > 100 µM (inactive) in the assay on A549; > 100 µM (inactive) in the assay with COLO 205; > 100 µM (inactive) in the assay with HCC 2998; 15.7 µM (inactive) in the assay on HL-60; > 100 µM (inactive) with HOP-92. Moreover, the GI50 in the assay on K562, in the assay with KM12, in the assay on MDA-N, in the assay with OVCAR-3, with OVCAR-8 and with PC-3 was > 100 µM (inactive) throughout. Moreover, the GI50 in the assay with SK-MEL-28 is > 100 µM (inactive); in the assay on SR it was 13.9 µM (inactive); in the assay with SW-620, > 100 µM (inactive); in the assay with TK-10, > 100 µM (inactive); in the assay on UACC-257, > 100 µM (inactive).
Turning to `Cc1cccc(C)c1NC(=O)C(=O)CC(=O)CO`, the GI50 is > 100 µM (inactive) in the assay on A498; > 100 µM (inactive) with A549; > 100 µM (inactive) in the assay on COLO 205; > 100 µM (inactive) with HCC 2998; more than 100 µM in the assay on HCT-15; > 100 µM (inactive) in the assay with HL-60. Also, the GI50 with HOP-92, with K562, in the assay with KM12, with LOX IMVI, with OVCAR-3 and with OVCAR-8 was > 100 µM (inactive) throughout. Also, the GI50 in the assay on SK-MEL-28, in the assay with SR, with SW-620, in the assay with TK-10 and in the assay on UACC-257 was > 100 µM (inactive) each time.
Consider `C/C=C/C/C=C/CCC(=O)C1OC1C(N)=O` (stereo not drawn), for which the GI50 was 20.7 µM (inactive) in the assay with A549; 18.9 µM (inactive) in the assay with COLO 205; 17.3 µM (inactive) in the assay on HCC 2998; 12.6 µM in the assay on HCT-15; 16 µM (inactive) with HOP-92; 15.9 µM (inactive) in the assay with K562. In addition, the GI50 was 15.3 µM (inactive) in the assay with KM12; 13.2 µM (inactive) with LOX IMVI; 20 µM (inactive) in the assay with NCI/ADR-RES; 18.7 µM (inactive) with OVCAR-3; 13.3 µM (inactive) with OVCAR-8; 15.4 µM (inactive) in the assay on PC-3. In addition, the GI50 in the assay on SK-MEL-28 is 15.4 µM (inactive); in the assay on SR it was 10.6 µM (inactive); in the assay with SW-620, 19.8 µM (inactive); in the assay on TK-10, 13.2 µM (inactive); in the assay on UACC-257, 17.3 µM (inactive).
With `C/C(CC(O)(/C=N/O)c1ccccc1)=N/O` (stereo not drawn), the GI50 is > 100 µM (inactive) in the assay with A549; > 100 µM (inactive) in the assay on HCC 2998; more than 100 µM in the assay with HCT-15; > 100 µM (inactive) in the assay on K562; > 100 µM (inactive) in the assay on KM12; > 100 µM (inactive) in the assay with LOX IMVI. Further, the GI50 is > 100 µM (inactive) in the assay on MDA-N; 99.8 µM (inactive) in the assay with NCI/ADR-RES; > 100 µM (inactive) in the assay with OVCAR-3; > 100 µM (inactive) in the assay with OVCAR-8; > 100 µM (inactive) in the assay with PC-3; > 100 µM (inactive) in the assay with SK-MEL-28. In addition, the GI50 with SR, with SW-620, in the assay with TK-10 and in the assay with UACC-257 was > 100 µM (inactive) throughout.
Take `Cc1ccc2ccccc2c1CC1S(=O)(=O)OCCOS1(=O)=O`: the GI50 is 13.5 µM (inactive) in the assay on A549; 2.43 µM (inactive) in the assay on COLO 205; 4.15 µM (inactive) in the assay with HCC 2998; 18.2 µM in the assay with HCT-15; 2.12 µM (inactive) in the assay with HL-60; 9.12 µM (inactive) in the assay with K562. Besides, the GI50 with KM12 is 12.1 µM (inactive); with LOX IMVI it was 7.94 µM (inactive); with MDA-N, 9.48 µM (inactive); with NCI/ADR-RES, 19.1 µM (inactive); in the assay on OVCAR-3, 6.89 µM (inactive); in the assay with OVCAR-8, 14.5 µM (inactive). The GI50 with PC-3 is 11.2 µM (inactive); with SK-MEL-28, 16 µM (inactive); in the assay on SR, 7.64 µM (inactive); with TK-10, 16.6 µM (inactive); in the assay with UACC-257, 18.2 µM (inactive).
Regarding `O=c1c(Cl)cc2nc3ccccc3sc-2c1Cl`, the GI50 with A498 was 33.9 µM (inactive); in the assay with A549, 18.7 µM (inactive); in the assay with COLO 205, 18.5 µM (inactive); with HCC 2998 it was 14.1 µM (inactive); in the assay with HCT-15, 14.7 µM; in the assay with HL-60 it was 10.6 µM (inactive). In addition, the GI50 in the assay with K562 is 6.85 µM (inactive); in the assay with KM12 it was 17.6 µM (inactive); in the assay on LOX IMVI, 12 µM (inactive); in the assay with NCI/ADR-RES it was 21.5 µM (inactive); with OVCAR-3 it was 1.98 µM (inactive); with SK-MEL-28, 18.1 µM (inactive). Moreover, the GI50 in the assay on SR was 4.57 µM (inactive); in the assay with SW-620 it was 12.5 µM (inactive); in the assay with TK-10, 17.9 µM (inactive); in the assay with UACC-257, 2.75 µM (inactive).
With `CN(Cc1ccccc1)C(=S)S` [SODIUM BENZYL(METHYL)CARBAMODITHIOATE], the GI50 was > 100 µM (inactive) with A498; 33.5 µM (inactive) with A549; 57.3 µM (inactive) with COLO 205; > 100 µM (inactive) in the assay on HCC 2998; 34 µM in the assay with HCT-15; 26.4 µM (inactive) in the assay with HL-60. The GI50 in the assay on HOP-92 is 68.2 µM (inactive); with K562, 34.1 µM (inactive); with KM12 it was 56.1 µM (inactive); in the assay with LOX IMVI, 27.9 µM (inactive); in the assay with MDA-N, 70.6 µM (inactive); with NCI/ADR-RES it was 38.1 µM (inactive). In addition, the GI50 in the assay with OVCAR-3 is 32 µM (inactive); in the assay on OVCAR-8, 33 µM (inactive); with SK-MEL-28, 69.2 µM (inactive); with SR, 20.6 µM (inactive); with SW-620, 51.3 µM (inactive); with UACC-257 it was 53.2 µM (inactive).
